{"source": "paper PMC4357444", "about": "“Accumulation of Squalene in a Microalga Chlamydomonas reinhardtii by Genetic Modification of Squalene Synthase and Squalene Epoxidase Genes” (PLoS ONE, 2015)", "target": "T1, CrSQS (Chlamydomonas reinhardtii, UniProt A0A2K3DXC5)", "T1 construct": "gene CHLRE_03g175250v5; Met-1 to Asp-397, C-terminal 64 residues (transmembrane region) removed; C-terminal 6xHis (pET-21b), E. coli BL21(DE3), TALON purified, 46 kDa", "T1 sequence (A0A2K3DXC5 entry or part of it)": "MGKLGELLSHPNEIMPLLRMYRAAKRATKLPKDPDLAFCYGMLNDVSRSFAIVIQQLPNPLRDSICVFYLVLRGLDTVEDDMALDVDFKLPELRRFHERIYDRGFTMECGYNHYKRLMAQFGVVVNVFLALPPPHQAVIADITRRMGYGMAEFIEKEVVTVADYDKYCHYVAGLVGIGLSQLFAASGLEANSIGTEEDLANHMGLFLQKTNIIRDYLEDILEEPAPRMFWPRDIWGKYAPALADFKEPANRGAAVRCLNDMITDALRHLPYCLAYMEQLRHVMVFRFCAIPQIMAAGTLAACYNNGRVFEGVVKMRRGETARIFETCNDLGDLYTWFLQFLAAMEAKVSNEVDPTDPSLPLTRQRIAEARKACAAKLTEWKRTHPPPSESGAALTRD", "assay": "radiolabel TLC assay of squalene formation", "assay_type": "biochemical", "conditions": "25 uM (1-14C) FPP, 2.5 mM NADPH, 5 mM MgCl2 or 2 mM MnCl2, pH 7.4, 30 °C; labelled compound; 2.5 mM NADPH (with glucose-6-phosphate dehydrogenase regeneration) against no NADPH", "data": [{"smiles": "NC(=O)C1=CN([C@@H]2O[C@H](COP(=O)(O)OP(=O)(O)OC[C@H]3O[C@@H](n4cnc5c(N)ncnc54)[C@H](OP(=O)(O)O)[C@@H]3O)[C@@H](O)[C@H]2O)C=CC1", "note": "[NADPH]", "values": [{"measurement": "radiolabel TLC assay of squalene formation", "result": "When NADPH was removed, radiolabeled squalene was not detected in any sample"}]}]}
